Experimental findings from patent US20090081310A1, “METHOD FOR R[…] STRUCTURE CO[…] MOLD” (priority 2004, published 2009) are described below.

The test system of data set [1] is mold and mold spores. Nature of the data set: Fumigation of an approximately 6000 square feet mold-contaminated structure with chlorine dioxide gas (Example 2). The note with it: 600 to 1300 ppmv for 12 hours, total CT over 9000 ppmv hours; 70 to 100° F., minimum 65% relative humidity; including mold underneath wallpaper. The method, then: A structure of approximately 6000 square feet consisting of three above surface floors and a basement was located that had developed significant mold growth of a variety of species due to water intrusion and appropriate environmental conditions. […] Mold growth was visible and abundant upon walls, ceilings and other surfaces.
The temperature of the structure was raised and maintained in the range of 70 to 100° F. (21 to 38° C.) and the relative humidity was raised to a minimum of 65%. Chlorine dioxide solution was generated in a closed fluid loop by the process described in U.S. Pat. No. 6,468,479. Chlorine dioxide gas was added to the structure at such a rate as to maintain a concentration of between 600 and 1300 ppmv for a 12 hour period and a total CT of over 9000 ppmv hours of chlorine dioxide.
Chlorine dioxide concentration and purity were monitored by AWWA standard method 6500-ClO2-E in solution phase and a modification therewith to adapt the procedure for gas phase sampling. […] The maximum chlorine dioxide concentration detected exterior to the containment tent was less than 2 parts per billion, well within the maximum exposure guidelines established.
Following treatment mold viability was evaluated in the structure. […]

Data set [2] deals with mold spores. The experiment in a line: Mold remediation with chlorine dioxide gas, general finding. The note with it: time averaged concentration about 500 to 1500 ppmv over a 12 hour period. The method, then:
It is an aspect of this invention to minimize the chlorine dioxide concentration and CT to the extent possible to assure decontamination while avoiding damage to building contents such as electronic equipment (e.g., telephone equipment, computers, copiers, and other electronic office equipment), furnishings, and the like. Typical chlorine dioxide concentrations are in the range of 500 to 3000 ppmv, and exposure times are typically about 8 to 12 hours. For mold remediation, a time averaged chlorine dioxide gas concentration in the range of about 500 to 1500 ppmv over a 12 hour period has been found effective for killing mold spores and eliminating allergenic effects.

Data set [3] deals with mold and mold spores. Nature of the data set: Fumigation of an approximately 50,000 ft^2 mold-contaminated building with chlorine dioxide gas (Example 1). The note with it: 2,500 to 3,000 ppmv over 3 hours; approx. 75° F., approx. 75% relative humidity. As to the method: An approximately 50,000 ft^2 mold-contaminated building (1 million cubic feet approximately) was remediated by fumigating the building with chlorine dioxide gas at a concentration within the range of 2,500 to 3,000 ppmv over a period of 3 hours. Temperature was maintained at approximately 75° F. and the relative humidity was maintained at approximately 75% before and during fumigation. Carpets and other porous materials within the contaminated building were not removed prior to fumigation. […] Porous surfaces that were black, grey and green shades prior to treatment were returned to original appearance. The mold mass was also substantially eliminated such that one to four square foot samples were required to collect 0.1 to 0.25 grams of mold residue resulting in a 99+ percent elimination in mold mass. Samples of the treated material were analyzed by PCR (polymerase chain reaction) analysis for DNA. Depending upon the initial concentration levels a 3 to 7 log reduction in DNA was observed.

On to `[O][Cl+][O-]` [chlorine dioxide gas, chlorine dioxide], for which the “mold and mold spores rendered non viable” value in data set [1] is listed as roughly 100%. Also, the “killing mold spores and eliminating allergenic effects” value in data set [2] is “effective”. Also, in data set [3], the “elimination in mold mass” value is no less than 99%; the “viable mold and mold spores in the facility” value is “substantially eliminated viable mold and mold spores”.
